Source: patent US12448399B2, “Cereblon-based KRAS degrading PROTACs and uses related thereto” (Arvinas Operations, Inc., priority 2023, dated 2025)

Target: T1, KRas-G12D (Homo sapiens, UniProt P01116, G12D)
T1 construct: insert the HiBiT tag onto the N-terminus of one or more of the endogenous KRas alleles; host or cells: AsPC-1 HiBiT-KRasG12D knock-in clone (one tagged allele, two untagged KRasG12D alleles)
Test: HiBiT Degradation Assay (G12D), AsPC-1 HiBiT-KRasG12D cells, 24 hr
Assay type: cell-based
Conditions: for DC50: AsPC-1 cells; for Dmax: ASPC1, AsPC-1 cells, maximum degradation observed
In short: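 Degradation was read after 24 hr compound exposure (0.5% DMSO, 37° C) by Nano-Glo HiBiT lytic luminescence in AsPC-1 cells carrying a HiBiT tag on one of three KRasG12D alleles. Signal relative to DMSO gave DC50 and Dmax by 4-parameter fit; alamar blue fluorescence monitored cytotoxicity.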

T1 sequence (P01116 1-188 isoform P01116-2 G12D): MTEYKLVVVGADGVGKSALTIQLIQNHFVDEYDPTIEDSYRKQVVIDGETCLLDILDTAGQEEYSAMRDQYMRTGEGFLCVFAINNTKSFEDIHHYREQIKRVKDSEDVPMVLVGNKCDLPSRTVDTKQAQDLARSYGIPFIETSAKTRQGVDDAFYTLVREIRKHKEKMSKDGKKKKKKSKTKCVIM

Structure (SMILES)	DC50 [µM]	Dmax [%]
CCc1cccc2cc(O)cc(-c3ncc4c(N5CC6CCC(C5)N6)nc(OCCN5CCC(CCN6CCN(c7ccc8c(c7)C(=O)N(C7CCC(=O)NC7=O)C8=O)CC6)CC5)nc4c3F)c12 (centres unmarked) [Compound 31]	0.1 to 5.25	–
CCc1c(F)ccc2cc(O)cc(-c3ncc4c(N5CC6CCC(C5)N6)nc(OCCN5CCC6(CC5)CCN(CC5CCN(c7ccc8c(c7)n(C)c(=O)n8C7CCC(=O)NC7=O)CC5)CC6)nc4c3F)c12 (centres unmarked) [Compound 171, 3-(5-{4-[(9-{2-[(4-{3,8-diazabicyclo[3.2.1]octan-3-yl}-7-(8-ethyl-7-fluoro-3-hydroxynaphthalen-1-yl)-8-fluoropyrido[4,3-d]pyrimidin-2-yl)oxy]ethyl}-3,9-diazaspiro[5.5]undecan-3-yl)methyl]piperidin-1-yl}-3-methyl-2-oxo-2,3-dihydro-1H-1,3-benzodiazol-1-yl)piperidine-2,6-dione]	< 5.1	> 70
C#Cc1c(F)ccc2cc(O)cc(-c3ncc4c(N5CC6CCC(C5)N6)nc(OCCN5CCC(CN6CCN(CC7CCN(c8ccc9c(c8)n(C)c(=O)n9C8CCC(=O)NC8=O)CC7)CC6)CC5)nc4c3F)c12 (centres unmarked) [Compound 221, 3-{5-[4-({4-[(1-{2-[(4-{3,8-diazabicyclo[3.2.1]octan-3-yl}-7-(8-ethynyl-7-fluoro-3-hydroxynaphthalen-1-yl)-8-fluoropyrido[4,3-d]pyrimidin-2-yl)oxy]ethyl}piperidin-4-yl)methyl]piperazin-1-yl}methyl)piperidin-1-yl]-3-methyl-2-oxo-2,3-dihydro-1H-1,3-benzodiazol-1-yl}piperidine-2,6-dione]	< 5.1	> 70
C#Cc1c(F)ccc2cc(O)cc(-c3ncc4c(N5CC6CCC(C5)N6)nc(OCCN5CCC(CN6CCN(CC7CCN(c8cc(C)c9c(c8F)CN(C8CCC(=O)NC8=O)C9=O)CC7)CC6)CC5)nc4c3F)c12 (centres unmarked) [Compound 148, 3-{5-[4-({4-[(1-{2-[(4-{3,8-diazabicyclo[3.2.1]octan-3-yl}-7-(8-ethynyl-7-fluoro-3-hydroxynaphthalen-1-yl)-8-fluoropyrido[4,3-d]pyrimidin-2-yl)oxy]ethyl}piperidin-4-yl)methyl]piperazin-1-yl}methyl)piperidin-1-yl]-4-fluoro-7-methyl-1-oxo-2,3-dihydro-1H-isoindol-2-yl}piperidine-2,6-dione]	< 5.1	> 70
CCc1cccc2cc(O)cc(-c3ncc4c(N5CC6CCC(C5)N6)nc(OCCN5CCN(CCN(C)[C@H]6C[C@H](Oc7ccc8c(c7)C(=O)N(C7CCC(=O)NC7=O)C8=O)C6)CC5)nc4c3F)c12 (some centres unmarked) [Compound 4]	> 1	–
C#Cc1c(F)ccc2cc(O)cc(-c3ncc4c(N5CC6CCC(C5)N6)nc(OCCN5CCC(CN6CCN(CC7CCN(c8ccc9c(c8F)CN(C8CCC(=O)NC8=O)C9=O)CC7)CC6(C)C)CC5)nc4c3F)c12 (centres unmarked) [Compound 239, 3-[5-[4-[[4-[[1-[2-[4-(3,8-diazabicyclo[3.2.1]octan-3-yl)-7-(8-ethynyl-7-fluoro-3-hydroxy-1-naphthyl)-8-fluoro-pyrido[4,3-d]pyrimidin-2-yl]oxyethyl]-4-piperidyl]methyl]-3,3-dimethyl-piperazin-1-yl]methyl]-1-piperidyl]-4-fluoro-1-oxo-isoindolin-2-yl]piperidine-2,6-dione]	< 5.1	> 70
C#Cc1c(F)ccc2cc(O)cc(-c3ncc4c(N5CC6CCC(C5)N6)nc(OC[C@@H]5C[C@@H](OC6CCN(c7ccc8c(c7F)CN(C7CCC(=O)NC7=O)C8=O)CC6)CN5C)nc4c3F)c12 (stereo partly drawn) [Compound 103, 3-[5-(4-{[(3R,5S)-5-{[(4-{3,8-diazabicyclo[3.2.1]octan-3-yl}-7-(8-ethynyl-7-fluoro-3-hydroxynaphthalen-1-yl)-8-fluoropyrido[4,3-d]pyrimidin-2-yl)oxy]methyl}-1-methylpyrrolidin-3-yl]oxy}piperidin-1-yl)-4-fluoro-1-oxo-2,3-dihydro-1H-isoindol-2-yl]piperidine-2,6-dione]	< 5.1	> 70
C#Cc1c(F)ccc2cc(O)cc(-c3ncc4c(N5CC6CCC(C5)N6)nc(OCCN5CCC(F)(CC6CCN(CC7CCN(c8ccc9c(c8)n(C)c(=O)n9C8CCC(=O)NC8=O)CC7)CC6)CC5)nc4c3F)c12 (centres unmarked) [Compound 198, 3-[5-[4-[[4-[[1-[2-[4-(3,8-diazabicyclo[3.2.1]octan-3-yl)-7-(8-ethynyl-7-fluoro-3-hydroxy-1-naphthyl)-8-fluoro-pyrido[4,3-d]pyrimidin-2-yl]oxyethyl]-4-fluoro-4-piperidyl]methyl]-1-piperidyl]methyl]-1-piperidyl]-3-methyl-2-oxo-benzimidazol-1-yl]piperidine-2,6-dione]	< 5.1	> 70
C#Cc1c(F)ccc2cc(O)cc(-c3ncc4c(N5CC6CCC(C5)N6)nc(OCCN5CCC6(CC5)CCN(CC5CCN(c7ccc8c(c7)n(C(C)C)c(=O)n8C7CCC(=O)NC7=O)CC5)CC6)nc4c3F)c12 (centres unmarked) [Compound 202, 3-(5-{4-[(9-{2-[(4-{3,8-diazabicyclo[3.2.1]octan-3-yl}-7-(8-ethynyl-7-fluoro-3-hydroxynaphthalen-1-yl)-8-fluoropyrido[4,3-d]pyrimidin-2-yl)oxy]ethyl}-3,9-diazaspiro[5.5]undecan-3-yl)methyl]piperidin-1-yl}-2-oxo-3-(propan-2-yl)-2,3-dihydro-1H-1,3-benzodiazol-1-yl)piperidine-2,6-dione]	< 5.1	> 70
C#Cc1c(F)ccc2cc(O)cc(-c3ncc4c(N5CC6CCC(C5)N6)nc(OCCN5CCC(CC6CCN(CC7CCN(c8ccc9c(c8F)n(C)c(=O)n9C8CCC(=O)NC8=O)CC7)CC6)CC5)nc4c3F)c12 (centres unmarked) [Compound 206, 3-{5-[4-({4-[(1-{2-[(4-{3,8-diazabicyclo[3.2.1]octan-3-yl}-7-(8-ethynyl-7-fluoro-3-hydroxynaphthalen-1-yl)-8-fluoropyrido[4,3-d]pyrimidin-2-yl)oxy]ethyl}piperidin-4-yl)methyl]piperidin-1-yl}methyl)piperidin-1-yl]-4-fluoro-3-methyl-2-oxo-2,3-dihydro-1H-1,3-benzodiazol-1-yl}piperidine-2,6-dione]	< 5.1	> 70
C#Cc1c(F)ccc2cc(O)cc(-c3nc(N4CC5CCC(C4)N5)c4cnc(OCCN5CCC6(CC5)CN(CC5CCN(c7ccc8c(c7F)CN(C7CCC(=O)NC7=O)C8=O)CC5)C6)nc4c3F)c12 (centres unmarked) [Compound 127]	< 5.1	–
C#Cc1c(F)ccc2cc(O)cc(-c3ncc4c(N5CC6CCC(C5)N6)nc(N(C)CCN5CCC(CC6CCN(CC7CCN(c8ccc9c(c8F)CN(C8CCC(=O)NC8=O)C9=O)CC7)CC6)CC5)nc4c3F)c12 (centres unmarked) [Compound 105]	< 5.1	≤ 25
CCc1c(F)ccc2cc(O)cc(-c3ncc4c(N5CC6CCC(C5)N6)nc(OCCN5CCC(CC6CCN(CC7CCN(c8cccc9c8CN(C8CCC(=O)NC8=O)C9=O)CC7)CC6)CC5)nc4c3F)c12 (centres unmarked) [Compound 137, 3-{4-[4-({4-[(1-{2-[(4-{3,8-diazabicyclo[3.2.1]octan-3-yl}-7-(8-ethyl-7-fluoro-3-hydroxynaphthalen-1-yl)-8-fluoropyrido[4,3-d]pyrimidin-2-yl)oxy]ethyl}piperidin-4-yl)methyl]piperidin-1-yl}methyl)piperidin-1-yl]-1-oxo-2,3-dihydro-1H-isoindol-2-yl}piperidine-2,6-dione]	< 5.1	–
CCc1cccc2cc(O)cc(-c3nc(N4CC5CCC(C4)N5)c4cnc(OCCN5CCC(CC6CCN(c7cccc8c7CN(C7(C)CCC(=O)NC7=O)C8=O)CC6)CC5)nc4c3F)c12 (centres unmarked) [Compound 30]	> 1	–
C#Cc1c(F)ccc2cc(O)cc(-c3ncc4c(N5CC6CCC(C5)N6)nc(OCCN5CCC(CC6CCN(CC7CCN(c8ccc9c(c8F)n(C(C)C)c(=O)n9C8CCC(=O)NC8=O)CC7)CC6)CC5)nc4c3F)c12 (centres unmarked) [Compound 217, 3-{5-[4-({4-[(1-{2-[(4-{3,8-diazabicyclo[3.2.1]octan-3-yl}-7-(8-ethynyl-7-fluoro-3-hydroxynaphthalen-1-yl)-8-fluoropyrido[4,3-d]pyrimidin-2-yl)oxy]ethyl}piperidin-4-yl)methyl]piperidin-1-yl}methyl)piperidin-1-yl]-4-fluoro-2-oxo-3-(propan-2-yl)-2,3-dihydro-1H-1,3-benzodiazol-1-yl}piperidine-2,6-dione]	< 5.1	> 70
CCc1cccc2cc(O)cc(-c3ncc4c(N5CC6CCC(C5)N6)nc(OCCN5CCN(c6cc(OC)c7c(c6)C(=O)N(C6CCC(=O)NC6=O)C7=O)CC5)nc4c3F)c12 (centres unmarked) [Compound 7]	> 1	–
C#Cc1c(F)ccc2cc(O)cc(-c3ncc4c(N5CC6CCC(C5)N6)nc(OC[C@@H]5C[C@@H](OC6CCN(CC7CCN(c8cccc9c8CN(C8CCC(=O)NC8=O)C9=O)CC7)CC6)CN5C)nc4c3F)c12 (stereo partly drawn) [Compound 115, 3-(4-{4-[(4-{[(3R,5S)-5-{[(4-{3,8-diazabicyclo[3.2.1]octan-3-yl}-7-(8-ethynyl-7-fluoro-3-hydroxynaphthalen-1-yl)-8-fluoropyrido[4,3-d]pyrimidin-2-yl)oxy]methyl}-1-methylpyrrolidin-3-yl]oxy}piperidin-1-yl)methyl]piperidin-1-yl}-1-oxo-2,3-dihydro-1H-isoindol-2-yl)piperidine-2,6-dione]	< 5.1	> 70
C#Cc1c(F)ccc2cc(O)cc(-c3ncc4c(N5CC6CCC(C5)N6)nc(OCCN5CCC(CC6CCN(CC7CCN(c8ccc9c(c8)CN(C8CCC(=O)NC8=O)C9=O)CC7)CC6)CC5)nc4c3F)c12 (centres unmarked) [Compound 138]	< 5.1	> 70
C#Cc1c(F)ccc2cc(O)cc(-c3ncc4c(N5CC6CCC(C5)N6)nc(OCCN5CCC(CC6CCN(CC7CCN(c8ccc(F)c9c8CN(C8CCC(=O)NC8=O)C9=O)CC7)CC6)CC5)nc4c3F)c12 (centres unmarked) [Compound 123]	< 5.1	> 70
